Measured values taken from patent US7906520B2, “Methods for treating pain” (The General Hospital Corporation, priority 2003, dated 2011).

Tests used:
BH4 biosynthesis = experiment: Tissue biopterin and neopterin levels after SNI (LC-MS/MS); type: in vivo; settings: with DAHP administration
Method: FIG. 30 is a series of bar graphs quantifying the levels of the BH4 metabolites biopterin and neopterin in the DH, DRG, and ScN following SNI surgery with and without DAHP treatment, compared to control.
Using the preferred method, tissue neopterin and biopterin levels were determined with a liquid chromatography tandem mass spectrometry method. After acidic pH oxidation with iodine according to Fukushima and Nixon (Methods Enzymol. 66: 429-436, 1980) tissues were extracted by solid phase extraction employing Oasis MCX extraction cartridges and concentrations of total biopterin, neopterin and the internal standard rhamnopterin were determined by liquid chromatography coupled to tandem mass spectrometry. HPLC analysis was done under gradient conditions using a Nucleosil C8 column. MS/MS analyses were performed on an API 4000 Q TRAP triple quadrupole mass spectrometer with a Turbo Ion Spray source. Precursor-to-product ion transitions of m/z 236 192 for biopterin, m/z 252 192 for neopterin, m/z 265 192 for rhamnopterin were used for the MRM. Concentrations of the calibration standards, quality controls and samples were evaluated by Analyst software 1.4 (Applied Biosystems). Linearity of the calibration curve was proven from 0.1-50 ng/ml. The coefficient of correlation for all measured sequences was at least 0.99. The intra-day and inter-day variability was <10%.

naïve rats = experiment: Response to tactile and heat stimuli in naïve rats; type: in vivo, rat; settings: non-injured animals
Method: FIGS. 13A and 13B are a series of graphs showing the effects of DAHP on the response to tactile (13A) and heat stimuli (13B) in naïve rats. A single dose of DAHP (180 mg/kg i.p.) or vehicle was injected at time “zero”.
Hypersensitivity was induced using the CFA model of paw inflammation. In these experiments, BH4 was injected at time “zero” after measurement of baseline paw withdrawal latency.

GTPCH-1 expression = experiment: GTPCH-I in situ hybridization in DRG after SNI; type: in vivo; settings: 14 days after SNI surgery, DAHP vs vehicle
Description: FIG. 27A is a series of photomicrographs of in situ hybridization of GTPCH-I in the ipsilateral (lesioned) and contralateral (control) dorsal root ganglia 3 days (top panel) and 14 days (bottom panel) after SNI surgery. FIG. 27B is a series of photomicrographs of GTPCH-I in situ hybridization 14 days after SNI surgery and treatment with either DAHP or vehicle control.

dorsal horn neurons = experiment: TUNEL staining of apoptotic profiles in L4/L5 dorsal horn after SNI; type: in vivo; settings: DAHP 180 mg/kg/day i.p., 7 days after SNI
Method: FIG. 25 is a bar graph showing the number of apoptotic cell profiles, using TUNEL staining, observed in the L4/L5 dorsal horn 7 days after SNI surgery of animals treated with either 180 mg/kg/day DAHP or vehicle control. Apoptotic neurons were detected by in situ TUNEL labeling and counted by a blinded observer.

[1] = tested on: formalin injection into the hindpaw; experiment: Formalin test: flinching behavior and cFos immunoreactivity in dorsal horn; type: in vivo, rat
Method: DAHP (180 mg/kg) was injected i.p. one hour before injection of formalin into the hindpaw. Flinches were counted for one hour starting right after formalin injection. FIG. 24A is a series of photo micrographs showing cFos immunoreactivity in ipsilateral dorsal horn neurons two hours after formalin injection in DAHP and vehicle-treated rats. FIG. 24B is a bar graph quantifying the number of cFos immunoreactive cell bodies observed under each condition.

[2] = tested on: CCI model of neuropathic pain; experiment: Chronic constriction injury (CCI) model of neuropathic pain; type: in vivo, rat; settings: 180 mg/kg/d i.p.
Method: FIGS. 9A and 9B are two graphs showing the effect of DAHP on nociceptive behavior in the CCI model of neuropathic pain. […] DAHP treatment (180 mg/kg/d i.p. for 5 days) was started 3 days after surgery and nociceptive behavior was assessed daily before and after drug injection and once every second day after stopping daily drug injections.
All procedures were performed in accordance with Massachusetts General Hospital animal care regulations. Adult male Sprague Dawley rats (200-300 g) were anesthetized with halothane. For the sciatic nerve transection (axotomy), the left sciatic nerve was exposed at the mid thigh level, ligated with 3/0 silk, and sectioned distally. The wound was sutured in two layers, and the animals were allowed to recover. For SNI the tibial and peroneal branch of the sciatic nerve were ligated and transected whereas the sural nerve was spared. For CCI, the sciatic nerve was loosely ligated with dexon 4/0 (three ligatures) and for the spinal ligation model the L5 spinal segmental nerve was ligated.

With `Nc1cc(O)nc(N)n1` [DAHP, 2,4-Diamino-6-hydroxypyrimidine] the “biopterin increases after SNI” value (BH4 biosynthesis; DH, DRG, ScN) was “reversed in the DH and the ScN, but not the DRG”, the “neopterin increases after SNI” value (BH4 biosynthesis; DRG and ScN) was “reversed” and the “motor activity, von Frey and Hargreaves tests” value (naïve rats; DAHP 180 mg/kg i.p. single dose) was “did not result in a difference in motor activity”. The “sedation, general level of activity” value (naïve rats; DAHP) was “no obvious signs of sedation”, the “GTPCH-1 expression in DRG” value (GTPCH-1 expression) was “does not affect GTPCH-1 expression” and the “apoptosis of dorsal horn neurons (TUNEL)” value (dorsal horn neurons) was “protects dorsal horn neurons from apoptosis”. The “flinching behavior in the formalin assay” value ([1]; single i.p. dose of 180 mg/kg) was “reduced the flinching behavior”, the “c-FOS immunoreactivity in ipsilateral dorsal horn neurons” value ([1]; two hours after formalin, intraperitoneal DAHP, p<0.05) was “significantly reduced elevation” and the “analgesic effects in CCI model” value [2] was “analgesic effects of DAHP were further confirmed”.
